We go through 20 compounds from PubChem BioAssay AID206 (DTP/NCI, 2004).

“And” between values parts separate entries of the source, which are not always exact repeats. Identical values can stand only once. Results filed as inconclusive are left out. Positions of bridges follow the written chain, without caps; N, C: chain ends. Non-standard residues stand in square brackets, D forms with d. Residues, ends and D or L forms follow the SMILES beside them. Chains are numbered I, II in the order given. *: point of attachment. Quinoxaline2carbonyl = O=C(c1cnc2ccccc2n1)*; NMeV = CN[CH](C(=O)O)C(C)C; NMeC = CN[CH](CS)C(=O)O

The assay deals with nude mice, HT29 intrarenal xenograft, tumor weight T/C. The assay can be described thus: NCI In Vivo Anticancer Drug Screen. Data for tumor model HT29;CX-1 Human Adenocarcinoma (MER+) (intrarenal inoculation) in NU/NU Swiss (nude) mice. Conditions: endpoint: mean tumor weight change, higher = larger tumour. In a few lines:
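Endpoint measured as tumor size or survival; ratio reported is treated group over vehicle controls.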

Setting [1] is: dose: 75.0 mg/kg/injection, schedule: Q04DX004 (sc), vehicle: saline with Tween-80.
Where [2] appears, read: dose: 150.0 mg/kg/injection, schedule: Q04DX004 (sc), vehicle: saline with Tween-80.
Setting [3] is: dose: 37.5 mg/kg/injection, schedule: Q04DX004 (sc), vehicle: saline.
[4] abbreviates: dose: 75.0 mg/kg/injection, schedule: Q04DX004 (sc), vehicle: saline.

`CCNC(=O)OCc1c(COC(=O)NCC)c(-c2ccc(Cl)c(Cl)c2)n2c1CCC2`: the T/C reads like this: under setting [1], 5 % of control and 19 % of control; under setting [2], 66 % of control.
`CCCCCCCCCCCCCCCCP(=O)(OCCOCCCCCC)OCCOCCCCCC`: the T/C is, setting by setting: under setting [3], 206 % of control; under setting [4], 93 % of control; (dose: 300.0 mg/kg/injection, schedule: Q04DX004 (sc), vehicle: saline) 178 % of control.
For `CCN(Cc1ccc(Cl)c(Cl)c1)c1ccc2nc(N)nc(N)c2c1C`, the T/C was 44 % of control (dose: 9.38 mg/kg/injection, schedule: Q04DX004 (sc), vehicle: distilled water + Tween-80); 54 % of control (dose: 18.75 mg/kg/injection, schedule: Q04DX004 (sc), vehicle: distilled water + Tween-80); 93 % of control (dose: 37.5 mg/kg/injection, schedule: Q04DX004 (sc), vehicle: distilled water + Tween-80); 47 % of control (dose: 75.0 mg/kg/injection, schedule: Q04DX004 (sc), vehicle: distilled water + Tween-80).
With `C[PH+](C)C.C[PH+](C)C.[Au]`, the T/C (dose: 2.5 mg/kg/injection, schedule: Q04DX004 (sc), vehicle: saline) was 108 % of control; the T/C (dose: 20.0 mg/kg/injection, schedule: Q04DX004 (sc), vehicle: saline) is 42 % of control and 65 % of control.
In the case of `CC(C)[NH-].CC(C)[NH-].O.O.[Cl][Pt+2][Cl]`, the T/C is 77 % of control and 79 % of control (dose: 6.25 mg/kg/injection, schedule: Q01DX010 (sc), vehicle: dextrose); 7 % of control and 23 % of control (dose: 12.5 mg/kg/injection, schedule: Q01DX010 (sc), vehicle: dextrose).
On to `CC(C)=CC(=O)OC1C2C(C)=CC(=O)C(O)C2(C)C2C3(O)OCC24C(CC(=O)OC14)C(C)C3O` (stereo unspecified), for which the T/C reads like this: (dose: 1.25 mg/kg/injection, schedule: Q04DX004 (sc), vehicle: distilled water + Tween-80) 67 % of control and 76 % of control; (dose: 1.25 mg/kg/injection, schedule: Q04DX004 (sc), vehicle: saline with Tween-80) 70 % of control; (dose: 5.0 mg/kg/injection, schedule: Q04DX004 (sc), vehicle: saline with Tween-80) 44 % of control.
Regarding `C1CN1c1nc(N2CC2)nc(N2CC2)n1`, under “dose: 0.25 mg/kg/injection, schedule: Q01DX010 (sc), vehicle: saline”, the T/C is 213 % of control.
On to `O=c1cnn(C2OC(CO)C(O)C2O)c(=O)[nH]1` (stereo unspecified), for which the T/C is 71 % of control (dose: 200.0 mg/kg/injection, schedule: Q01DX010 (sc), vehicle: saline); 100 % of control (dose: 400.0 mg/kg/injection, schedule: Q01DX010 (sc), vehicle: saline); 97 % of control (dose: 800.0 mg/kg/injection, schedule: Q01DX010 (sc), vehicle: saline); 34 % of control (dose: 1600.0 mg/kg/injection, schedule: Q01DX010 (sc), vehicle: saline).
For `Cn1cnc([N+](=O)[O-])c1Sc1ncn[nH]1`, where the note is “dose: 200.0 mg/kg/injection, schedule: Q04DX004 (sc), vehicle: suspension in saline”, the T/C was 49 % of control.
For the compound `C1CN2CCC1CC2`, the T/C is 65 % of control (dose: 9.38 mg/kg/injection, schedule: Q04DX004 (sc), vehicle: saline with Tween-80) and 82 % of control (dose: 18.75 mg/kg/injection, schedule: Q04DX004 (sc), vehicle: saline with Tween-80).
For the compound `CCc1ccc(C2=C(O)C(=O)C(c3ccccc3)=C(O)C2=O)cc1`, where the note is “dose: 75.0 mg/kg/injection, schedule: Q04DX004 (sc), vehicle: Klucel (hydroxypropylcellulose) (HPC)”, the T/C is 159 % of control.
For the compound `CSc1cc(=O)n2c3ccccc3c3ccnc1c32`, the T/C (dose: 80.0 mg/kg/injection, schedule: Q04DX004 (sc), vehicle: saline with Tween-80) was 88 % of control; the T/C (dose: 160.0 mg/kg/injection, schedule: Q04DX004 (sc), vehicle: saline with Tween-80) was 91 % of control; the T/C (dose: 320.0 mg/kg/injection, schedule: Q04DX004 (sc), vehicle: saline with Tween-80) was 110 % of control; the T/C (dose: 640.0 mg/kg/injection, schedule: Q04DX004 (sc), vehicle: saline with Tween-80) was 58 % of control.
For `CCOC1=Cc2c(oc3c(C(C)(C)C)cc(OCC)cc23)OC(C(C)(C)C)=C1`, the T/C (dose: 37.5 mg/kg/injection, schedule: Q04DX004 (sc), vehicle: saline with Tween-80) is 79 % of control; the T/C under setting [1] was 87 % of control; the T/C under setting [2] was 256 % of control.
With `CN=S(=O)(OCCCCCOS(=O)(=NC)c1ccc(C)cc1)c1ccc(C)cc1` (stereo unspecified), the T/C under setting [2] was 81 % of control.
On to `CC(C#N)(C#N)N=Nc1ccc(Cl)cc1Cl`, for which the T/C is 116 % of control (dose: 200.0 mg/kg/injection, schedule: Q04DX004 (sc), vehicle: saline with Tween-80) and 106 % of control (dose: 1600.0 mg/kg/injection, schedule: Q04DX004 (sc), vehicle: saline with Tween-80).
For the compound `C[Si](C)(C)OSc1ccccc1[N+](=O)[O-]`, the T/C is, setting by setting: (dose: 300.0 mg/kg/injection, schedule: Q04DX004 (sc), vehicle: Klucel (hydroxypropylcellulose) (HPC)) 79 % of control; (dose: 600.0 mg/kg/injection, schedule: Q04DX004 (sc), vehicle: Klucel (hydroxypropylcellulose) (HPC)) 61 % of control; (dose: 1200.0 mg/kg/injection, schedule: Q04DX004 (sc), vehicle: Klucel (hydroxypropylcellulose) (HPC)) 107 % of control; (dose: 2400.0 mg/kg/injection, schedule: Q04DX004 (sc), vehicle: Klucel (hydroxypropylcellulose) (HPC)) 93 % of control.
In the case of `CC1=CC(C)(C)Nc2ccc(CSc3ccccc3)cc21`, the T/C (dose: 75.0 mg/kg/injection, schedule: Q01DX010 (sc), vehicle: saline + Tween-80 + alcohol) was 53 % of control; the T/C (dose: 150.0 mg/kg/injection, schedule: Q01DX010 (sc), vehicle: saline + Tween-80 + alcohol) was 74 % of control; the T/C (dose: 300.0 mg/kg/injection, schedule: Q01DX010 (sc), vehicle: saline + Tween-80 + alcohol) was 50 % of control; the T/C (dose: 600.0 mg/kg/injection, schedule: Q01DX010 (sc), vehicle: saline + Tween-80 + alcohol) is 66 % of control.
Regarding `C(=N/NC1=NCCN1)/c1c2ccccc2c(/C=N\NC2=NCCN2)c2ccccc12`, the T/C was 83 % of control (dose: 18.75 mg/kg/injection, schedule: Q04DX004 (sc), vehicle: saline); 105 % of control under setting [3]; 75 % of control under setting [4].
As for `[N-]=[N+]=CC(=O)CCC(=O)C=[N+]=[N-]`, the T/C was 85 % of control and 99 % of control (dose: 36.0 mg/kg/injection, schedule: Q04DX004 (sc), vehicle: DMSO); 79 % of control (dose: 72.0 mg/kg/injection, schedule: Q04DX004 (sc), vehicle: DMSO).
For the compound `CC1NC(=O)C(NC(=O)c2cnc3ccccc3n2)COC(=O)C(C(C)C)N(C)C(=O)C2CSSCC(C(=O)N(C)C(C(C)C)C(=O)OCC(NC(=O)c3cnc4ccccc4n3)C(=O)NC(C)C(=O)N2C)N(C)C1=O` (stereo unspecified) (I: Quinoxaline2carbonyl-SA[NMeC][NMeV] / II: Quinoxaline2carbonyl-SA[NMeC][NMeV]; ester I:1-II:C, I:C-II:1; disulfide I:3-II:3; configuration not given here), the T/C (dose: 100.0 mg/kg/injection, schedule: Q04DX004 (sc), vehicle: Klucel (hydroxypropylcellulose) (HPC)) is 115 % of control; the T/C (dose: 200.0 mg/kg/injection, schedule: Q04DX004 (sc), vehicle: Klucel (hydroxypropylcellulose) (HPC)) is 96 % of control; the T/C (dose: 400.0 mg/kg/injection, schedule: Q04DX004 (sc), vehicle: Klucel (hydroxypropylcellulose) (HPC)) was 74 % of control.
